Counter-ions that a name gives are not always drawn. Like-named read-outs stand apart in the source and are kept apart here.
What was measured:
[1] = molecular target: T1, baculovirus-expressed ALK (Homo sapiens, UniProt Q9UM73); test: ALK Kinase Assay (ELISA-type, time-resolved fluorescence); type: biochemical
T1 construct: host or cells: baculovirus expression system
Procedure, shortened: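 Substrate coating: phospholipase C-γ, 10 μg/mL in TBS. Kinase step: 30 ng/ml ALK, 15 min, 37° C. Detection and analysis: Eu-N1 PT66 antibody, with IC50 fitted as a sigmoidal variable-slope dose-response curve.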

[2] = molecular target: T2, c-Met (cytoplasmic domain) (Homo sapiens, UniProt P08581); test: c-Met Kinase Assay (same methods as for ALK, with modifications); type: biochemical
T2 construct: 10 ng/mL c-Met (cytoplasmic domain, Invitrogen Corporation #PV3143); purchased Invitrogen Corporation PV3143
Procedure, shortened: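 This plate-based kinase format uses immobilized phospholipase C-γ as substrate, phosphorylated by c-Met cytoplasmic domain (10 ng/mL) at 37° C for 15 minutes.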

[3] = ALK kinase inhibition, 1 μM ATP (Km level), read-out: ALK Activity
[4] = c-Met kinase inhibition, 1 μM ATP (Km level), read-out: cMet Activity
[5] = ALK kinase inhibition, 1 μM ATP, read-out: ALK Activity
[6] = c-Met kinase inhibition, 1 μM ATP, read-out: cMet Activity
[7] = 1 μM ATP (Km level), read-out: ALK Activity (ALK Kinase Inhibition, IC50)
[8] = 1 μM ATP (Km level), read-out: cMet Activity (c-Met Kinase Inhibition, IC50)
[9] = 1 μM ATP (Km level), 30 ng/ml ALK, 37° C., 15 minutes, read-out: ALK Activity (ALK kinase inhibition, IC50 class)
[10] = 1 μM ATP (Km level), 10 ng/mL c-Met, read-out: cMet Activity (c-Met kinase inhibition, IC50 class)

T2 sequence (P08581 956-1390 limits assumed): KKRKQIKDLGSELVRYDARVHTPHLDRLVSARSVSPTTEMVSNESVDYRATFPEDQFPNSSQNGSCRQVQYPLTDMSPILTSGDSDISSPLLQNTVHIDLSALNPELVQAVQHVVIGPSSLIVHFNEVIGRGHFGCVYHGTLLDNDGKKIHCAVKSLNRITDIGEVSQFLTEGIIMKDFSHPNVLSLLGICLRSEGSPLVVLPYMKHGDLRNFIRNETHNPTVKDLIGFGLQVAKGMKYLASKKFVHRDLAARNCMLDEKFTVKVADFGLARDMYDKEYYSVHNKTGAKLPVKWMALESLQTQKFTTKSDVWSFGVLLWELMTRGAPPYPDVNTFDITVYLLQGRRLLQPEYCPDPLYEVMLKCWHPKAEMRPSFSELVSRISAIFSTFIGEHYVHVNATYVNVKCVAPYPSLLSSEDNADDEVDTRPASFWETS
T1 sequence (Q9UM73 19-1620): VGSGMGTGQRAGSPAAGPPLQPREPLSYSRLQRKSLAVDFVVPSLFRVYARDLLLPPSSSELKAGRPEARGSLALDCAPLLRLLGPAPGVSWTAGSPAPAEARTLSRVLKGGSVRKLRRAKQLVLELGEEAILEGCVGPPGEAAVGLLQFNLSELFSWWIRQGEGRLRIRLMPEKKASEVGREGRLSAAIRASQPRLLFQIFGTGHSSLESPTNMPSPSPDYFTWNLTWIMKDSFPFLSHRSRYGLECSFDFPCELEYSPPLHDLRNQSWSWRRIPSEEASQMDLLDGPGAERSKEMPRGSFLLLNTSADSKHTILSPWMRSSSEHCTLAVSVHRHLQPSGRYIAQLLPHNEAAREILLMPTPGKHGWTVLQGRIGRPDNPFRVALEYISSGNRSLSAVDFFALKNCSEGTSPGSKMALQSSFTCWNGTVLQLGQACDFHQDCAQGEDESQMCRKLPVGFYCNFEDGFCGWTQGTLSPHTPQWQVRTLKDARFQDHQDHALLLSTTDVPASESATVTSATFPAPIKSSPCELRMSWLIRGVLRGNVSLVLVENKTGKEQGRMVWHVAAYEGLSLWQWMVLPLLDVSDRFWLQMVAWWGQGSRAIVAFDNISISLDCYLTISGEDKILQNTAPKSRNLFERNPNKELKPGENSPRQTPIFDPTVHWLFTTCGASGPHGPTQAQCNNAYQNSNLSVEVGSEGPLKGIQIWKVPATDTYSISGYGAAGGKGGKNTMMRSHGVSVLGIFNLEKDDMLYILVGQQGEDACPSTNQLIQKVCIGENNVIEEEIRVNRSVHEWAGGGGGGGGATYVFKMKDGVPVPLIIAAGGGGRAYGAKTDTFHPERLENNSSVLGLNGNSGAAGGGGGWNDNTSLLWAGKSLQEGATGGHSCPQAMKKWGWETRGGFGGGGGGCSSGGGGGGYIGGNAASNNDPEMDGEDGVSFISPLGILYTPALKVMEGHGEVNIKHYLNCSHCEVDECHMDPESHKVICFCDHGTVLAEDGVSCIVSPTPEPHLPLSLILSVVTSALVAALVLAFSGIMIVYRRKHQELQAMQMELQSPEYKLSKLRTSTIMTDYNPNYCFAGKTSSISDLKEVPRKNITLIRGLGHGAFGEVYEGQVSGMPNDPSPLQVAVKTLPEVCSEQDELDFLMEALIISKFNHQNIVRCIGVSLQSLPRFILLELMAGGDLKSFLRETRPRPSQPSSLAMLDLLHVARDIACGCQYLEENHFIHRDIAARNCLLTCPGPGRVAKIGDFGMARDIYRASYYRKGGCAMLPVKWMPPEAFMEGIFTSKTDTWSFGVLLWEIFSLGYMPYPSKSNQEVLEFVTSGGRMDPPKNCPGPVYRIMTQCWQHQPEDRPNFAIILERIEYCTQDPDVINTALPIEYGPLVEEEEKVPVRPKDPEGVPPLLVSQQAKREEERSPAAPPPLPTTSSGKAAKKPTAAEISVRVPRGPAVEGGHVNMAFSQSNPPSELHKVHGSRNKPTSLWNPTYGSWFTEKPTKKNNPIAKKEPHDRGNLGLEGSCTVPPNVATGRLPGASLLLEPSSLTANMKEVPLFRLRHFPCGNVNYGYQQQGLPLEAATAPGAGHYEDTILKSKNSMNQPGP

Compound: CN1CCN(CCO)Cc2ccc(Nc3ncc(Cl)c(N[C@@H]4CCCC[C@H]4NS(C)(=O)=O)n3)cc21 [Example 478, N-((1R,2R)-2-{5-Chloro-2-[4-(2-hydroxy-ethyl)-1-methyl-2,3,4,5-tetrahydro-1H-benzo[e][1,4]diazepin-8-ylamino]-pyrimidin-4-ylamino}-cyclohexyl)-methanesulfonamide]
- IC50 [1, 3]: < 100 nM
- IC50 [2, 4]: 1000 to 10000 nM

Compound: COc1cc(N2CCOCC2)ccc1Nc1nc(Nc2ccc3c(c2)C(C)(C)CCC(=O)N3C)ncc1Cl [Example 1573, 7-[5-Chloro-4-(2-methoxy-4-morpholin-4-yl-phenylamino)-pyrimidin-2-ylamino]-1,5,5-trimethyl-1,3,4,5-tetrahydro-benzo[b]azepin-2-one]
- IC50 [1, 5]: < 100 nM
- IC50 [2, 6]: 1000 to 10000 nM

Compound: COCCN1CCc2cc(Nc3ncc(Cl)c(NC4C5C=CC(C5)C4C(N)=O)n3)c(OC)cc2CC1 (stereo not drawn) [Example 112, (2-exo,3-exo)-3-{5-Chloro-2-[8-methoxy-3-(2-methoxy-ethyl)-2,3,4,5-tetrahydro-1H-benzo[d]azepin-7-ylamino]-pyrimidin-4-ylamino}-bicyclo[2.2.1]hept-5-ene-2-carboxylic acid amide]
- IC50 [1, 3]: < 100 nM
- IC50 [2, 4]: > 10000 nM

Compound: CNS(=O)(=O)c1ccccc1Nc1nc(Nc2ccc3c(c2)C2CC3CN(C(C)C)C2)ncc1Cl (stereo not drawn) [Example 159, 2-[5-Chloro-2-(10-isopropyl-10-aza-tricyclo[6.3.1.0*2,7*]dodeca-2,4,6-trien-4-ylamino)-pyrimidin-4-ylamino]-N-methyl-benzenesulfonamide]
- IC50 [1, 3]: < 100 nM
- IC50 [2, 4]: 100 to 1000 nM

Compound: CCN1C2CCC1c1cc(Nc3ncc(Cl)c(N[C@@H]4CCCC[C@H]4NS(C)(=O)=O)n3)ccc1C2 (stereo partly drawn) [Example 71, N-{(1R,2R)-2-[5-Chloro-2-(12-ethyl-12-aza-tricyclo[7.2.1.0*2,7*]dodeca-2(7),3,5-trien-4-ylamino)-pyrimidin-4-ylamino]-cyclohexyl}-methanesulfonamide]
- IC50 [1, 3]: < 100 nM
- IC50 [2, 4]: 100 to 1000 nM

Compound: 5-Chloro-N*2*-[7-(2,2-difluoro-ethylamino)-1-methoxy-6,7,8,9-tetrahydro-5H-benzocyclohepten-2-yl]-N*4*-methyl-N*4*-[2-(propane-2-sulfonyl)-phenyl]-pyrimidine-2,4-diamine [Example 678]
- IC50 [1, 7]: < 100 nM
- IC50 [2, 8]: > 10000 nM

Compound: (1S,2S,3R,4R)-3-[5-Chloro-2-[4-cyclopropylmethyl-7-methoxy-2,3,4,5-tetrahydro-1H-benzo[e][1,4]diazepin-8-ylamino)-pyrimidin-4-ylamino]-bicyclo(2.2.1)hept-5-ene-2-carboxylic acid amide [Example 747]
- IC50 [1, 7]: < 100 nM
- IC50 [2, 8]: > 10000 nM

Compound: C#CCN1CCc2ccc(Nc3ncc(Cl)c(Nc4ccc(N5CCOCC5)cc4OC)n3)cc2CC1 [Example 324, 5-Chloro-N*4*-(2-methoxy-4-morpholin-4-yl-phenyl)-N*2*-(3-prop-2-ynyl-2,3,4,5-tetrahydro-1H-benzo[d]azepin-7-yl)-pyrimidine-2,4-diamine]
- IC50 [1, 3]: < 100 nM
- IC50 [2, 4]: 1000 to 10000 nM

Compound: CCN1CCN(CC)c2cc(Nc3ncc(Cl)c(N[C@@H]4CCCC[C@H]4NS(C)(=O)=O)n3)ccc2C1 [Example 426, N-{(1R,2R)-2-[5-Chloro-2-(1,4-diethyl-2,3,4,5-tetrahydro-1H-benzo[e][1,4]diazepin-8-ylamino)-pyrimidin-4-ylamino]-cyclohexyl}-methanesulfonamide]
- IC50 [1, 3]: < 100 nM
- IC50 [2, 4]: 100 to 1000 nM

Compound: CNC(=O)c1ccccc1Nc1nc(Nc2cc3c(cc2OC)CCN(CCN2CCOCC2)CC3)ncc1Cl [Example 1524, 2-{5-Chloro-2-[8-methoxy-3-(2-morpholin-4-yl-ethyl)-2,3,4,5-tetrahydro-1H-3-benzazepin-7-ylamino]-pyrimidin-4-ylamino}-N-methyl-benzamide]
- IC50 [1, 5]: < 100 nM
- IC50 [2, 6]: 1000 to 10000 nM

Compound: NC(=O)[C@@H]1[C@H](Nc2nc(Nc3ccc4c(c3)CCC(=O)CC4)ncc2Cl)[C@H]2C=C[C@@H]1C2 (relative stereo) [Example 173, (2-exo,3-exo)-3-[5-Chloro-2-(7-oxo-6,7,8,9-tetrahydro-5H-benzocyclo-hepten-2-ylamino)-pyrimidin-4-ylamino]-bicyclo[2.2.1]hept-5-ene-2-carboxylic acid amide; hydrochloride]
- IC50 [1, 3]: < 100 nM
- IC50 [2, 4]: 100 to 1000 nM

Compound: C#CCNC(=O)c1cccc(F)c1Nc1nc(Nc2ccc3c(c2)N(CCN(C)C)CCCC3(C)C)ncc1Cl [Example 1639, 2-{5-Chloro-2-[1-(2-dimethylamino-ethyl)-5,5-dimethyl-2,3,4,5-tetrahydro-1H-benzo[b]azepin-8-ylamino]-pyrimidin-4-ylamino}-3-fluoro-N-prop-2-ynyl-benzamide]
- IC50 [1, 5]: < 100 nM
- IC50 [2, 6]: 100 to 1000 nM

Compound: CC(=O)NCCOc1cccc(F)c1Nc1nc(Nc2ccc3c(c2)CCOC(=O)N3C)ncc1Cl [Example 1782, N-(2-{2-[5-Chloro-2-(5-methyl-6-oxo-5,6,8,9-tetrahydro-7-oxa-5-aza-benzocyclohepten-2-ylamino)-pyrimidin-4-ylamino]-3-fluoro-phenoxy}-ethyl)-acetamide]
- IC50 [1, 5]: 1000 to 10000 nM
- IC50 [2, 6]: 1000 to 10000 nM

Compound: CS(=O)(=O)N[C@@H]1CCCC[C@H]1Nc1nc(Nc2ccc3c(c2)CCC(F)(F)CC3)ncc1Cl [Example 181, N-{(1R,2R)-2-[5-Chloro-2-(7,7-difluoro-6,7,8,9-tetrahydro-5H-benzocyclohepten-2-ylamino)-pyrimidin-4-ylamino]-cyclohexyl}-methanesulfonamide]
- IC50 [1, 3]: < 100 nM
- IC50 [2, 4]: 1000 to 10000 nM

Compound: CCN1CC2CCC(C1)c1cc(Nc3ncc(Cl)c(Nc4ccccc4C(=O)NC)n3)ccc12 (stereo not drawn) [Example 271, 2-[5-Chloro-2-(10-ethyl-10-aza-tricyclo[6.3.2.0*2,7*]trideca-2,4,6-trien-4-ylamino)-pyrimidin-4-ylamino]-N-methyl-benzamide]
- IC50 [1, 3]: < 100 nM
- IC50 [2, 4]: < 100 nM

Compound: CCCNC(=O)c1ccccc1Nc1nc(Nc2ccc3c(c2)CCN(CCOC)CC3)ncc1Cl [Example 1023, 2-{5-Chloro-2-[3-(2-methoxy-ethyl)-2,3,4,5-tetrahydro-1H-benzo[d]azepin-7-ylamino]-pyrimidin-4-ylamino}-N-propyl-benzamide]
- IC50 [1, 9]: < 100 nM
- IC50 [2, 10]: 100 to 1000 nM

Compound: CCN1CC2OC(C1)c1cc(Nc3ncc(Cl)c(Nc4ccccc4C(=O)NC)n3)ccc12 (stereo not drawn) [Example 61, 2-[5-Chloro-2-(10-ethyl-12-oxa-10-aza-tricyclo[6.3.1.0*2,7*]dodeca-2,4,6-trien-4-ylamino)-pyrimidin-4-ylamino]-N-methyl-benzamide]
- IC50 [1, 3]: < 100 nM
- IC50 [2, 4]: 100 to 1000 nM

Compound: NC(=O)[C@@H]1CCCC[C@H]1Nc1nc(Nc2ccc3c(c2)CCC(NCC(F)(F)F)CC3)ncc1Cl (stereo partly drawn) [Example 653]
- IC50 [1, 7]: < 100 nM
- IC50 [2, 8]: 100 to 1000 nM

Compound: COCCN1CCc2cc(Nc3ncc(Cl)c(N[C@@H]4[C@H](C(N)=O)[C@H]5C=C[C@@H]4C5)n3)c(OC)cc2CC1 [Example 1322, (1R,2R,3S,4S)-3-{5-Chloro-2-[8-methoxy-3-(2-methoxy-ethyl)-2,3,4,5-tetrahydro-1H-benzo[d]azepin-7-ylamino]-pyrimidin-4-ylamino}-bicyclo[2.2.1]hept-5-ene-2-carboxylic acid amide]
- IC50 [1, 9]: 1000 to 10000 nM
- IC50 [2, 10]: > 10000 nM

Compound: CCN1CCN(CC)c2cc(Nc3ncc(Cl)c(Nc4ccccc4NS(C)(=O)=O)n3)ccc2C1=O [Example 423, N-{2-[5-Chloro-2-(1,4-diethyl-5-oxo-2,3,4,5-tetrahydro-1H-benzo[e][1,4]diazepin-8-ylamino)-pyrimidin-4-ylamino]-phenyl}-methanesulfonamide]
- IC50 [1, 3]: < 100 nM
- IC50 [2, 4]: 100 to 1000 nM

Compound: NC(=O)[C@@H]1[C@H](Nc2nc(Nc3ccc4c(c3)CCC(N3CCOCC3)CC4)ncc2C(F)(F)F)[C@H]2C=C[C@@H]1C2 (stereo partly drawn) [Example 935, (1S,2S,3R,4R)-3-[2-(7-Morpholin-4-yl-6,7,8,9-tetrahydro-5H-benzocyclohepten-2-ylamino)-5-trifluoromethyl-pyrimidin-4-ylamino]-bicyclo[2.2.1]hept-5-ene-2-carboxylic acid amide]
- IC50 [1, 7]: < 100 nM
- IC50 [2, 8]: < 100 nM

Compound: COc1ccc(Nc2nc(Nc3cc4c(cc3OC)CCN(C(=O)C3COCCO3)CC4)ncc2Cl)c(-n2cccn2)c1 (stereo not drawn) [Example 633, {7-[5-Chloro-4-(4-methoxy-2-pyrazol-1-yl-phenylamino)-pyrimidin-2-ylamino]-8-methoxy-1,2,4,5-tetrahydro-benzo[d]azepin-3-yl}-[1,4]dioxan-2-yl-methanone]
- IC50 [1, 7]: < 100 nM
- IC50 [2, 8]: > 10000 nM

Compound: C#CCN(C)C(=O)c1ccccc1Nc1nc(Nc2ccc3c(c2)CCN(CCOC)CC3)ncc1Cl [Example 1389, {5-Chloro-2-[3-(2-methoxy-ethyl)-2,3,4,5-tetrahydro-1H-benzo[d]azepin-7-ylamino]-pyrimidin-4-ylamino}-N-methyl-N-prop-2-ynyl-benzamide]
- IC50 [1, 9]: < 100 nM
- IC50 [2, 10]: 100 to 1000 nM

Compound: (1S,2S,3R,4R)-3-[2-(3-Carbamoylmethyl-8-methoxy-2,3,4,5-tetrahydro-1H-benzo[d]azepin-7-ylamino)-5-chloro-pyrimidin-4-ylamino]-bicyclo[2.2.1]hept-5-ene-2-carboxylic acid amide [Example 813]
- IC50 [1, 7]: < 100 nM
- IC50 [2, 8]: > 10000 nM
